Key:
[1] = target: T1, Sodium/hydrogen exchanger 3 (Homo sapiens, UniProt P48764); experiment: Inhibition of human NHE3 expressed in LAP1 cell assessed as intracellular pH recovery measured for 2 mins by CECF-AM dye based FLIPR assay
T1 sequence (P48764 whole entry): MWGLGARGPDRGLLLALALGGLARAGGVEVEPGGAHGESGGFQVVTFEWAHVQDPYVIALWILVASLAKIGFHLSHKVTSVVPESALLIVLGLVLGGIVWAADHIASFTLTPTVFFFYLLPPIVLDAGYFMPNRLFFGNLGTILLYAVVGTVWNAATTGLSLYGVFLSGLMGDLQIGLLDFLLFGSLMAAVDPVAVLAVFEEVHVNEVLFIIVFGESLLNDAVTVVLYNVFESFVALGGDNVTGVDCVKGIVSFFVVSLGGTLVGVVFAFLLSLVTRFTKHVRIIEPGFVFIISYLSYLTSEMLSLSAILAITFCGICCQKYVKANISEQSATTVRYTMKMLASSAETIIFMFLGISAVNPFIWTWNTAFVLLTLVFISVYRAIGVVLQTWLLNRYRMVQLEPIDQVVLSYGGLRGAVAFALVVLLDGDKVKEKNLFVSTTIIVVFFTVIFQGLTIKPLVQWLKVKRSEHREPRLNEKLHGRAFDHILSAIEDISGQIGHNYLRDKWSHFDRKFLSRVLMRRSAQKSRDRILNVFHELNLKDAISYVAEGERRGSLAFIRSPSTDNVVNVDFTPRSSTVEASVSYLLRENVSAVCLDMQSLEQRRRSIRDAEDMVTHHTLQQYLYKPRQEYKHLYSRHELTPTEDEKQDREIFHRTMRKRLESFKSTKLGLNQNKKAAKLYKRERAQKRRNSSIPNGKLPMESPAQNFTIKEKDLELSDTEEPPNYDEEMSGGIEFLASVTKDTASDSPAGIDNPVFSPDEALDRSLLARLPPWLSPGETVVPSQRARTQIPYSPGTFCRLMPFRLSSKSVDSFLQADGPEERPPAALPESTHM

[2] = Permeability in human Caco2/TC7 cells assessed as total flux at 20 uM incubated for 2 hrs by LC-MS/MS method; type: ADME, cell-based; conditions: Caco-2, read-out: permeability
Cytochrome P450 2D6 = Cytochrome P450 2D6 (Homo sapiens, UniProt P10635)
Sequence of Cytochrome P450 2D6 (P10635 whole entry): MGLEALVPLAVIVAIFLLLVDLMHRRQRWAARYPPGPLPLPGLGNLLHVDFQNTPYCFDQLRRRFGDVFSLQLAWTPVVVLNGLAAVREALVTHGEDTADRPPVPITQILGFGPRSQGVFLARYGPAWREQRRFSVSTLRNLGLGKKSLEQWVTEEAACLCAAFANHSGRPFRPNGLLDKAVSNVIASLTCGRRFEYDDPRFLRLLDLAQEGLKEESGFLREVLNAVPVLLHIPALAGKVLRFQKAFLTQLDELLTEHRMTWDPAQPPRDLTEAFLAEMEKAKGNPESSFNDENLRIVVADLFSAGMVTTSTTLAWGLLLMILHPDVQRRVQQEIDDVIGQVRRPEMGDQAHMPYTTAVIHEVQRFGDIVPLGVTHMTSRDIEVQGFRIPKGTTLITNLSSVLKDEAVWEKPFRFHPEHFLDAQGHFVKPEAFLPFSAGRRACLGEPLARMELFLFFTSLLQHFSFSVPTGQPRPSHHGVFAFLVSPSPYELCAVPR
Description: Inhibition of CYP2D6 in pooled human hepatic microsomes using dextromethorphan substrate in presence of NADPH

Row | Compound | IC50 [1] [nM] | Papp at 2 h, 20 µM [2] [×10⁻⁶ cm/s] | IC50 (Cytochrome P450 2D6) [nM]
1 | CN1CCCN([C@H]2Cc3c(Cl)cc(Cl)cc3[C@@H]2Oc2ccc(S(C)(=O)=O)cc2)CC1 | 93 | 6.4 | < 300
2 | CS(=O)(=O)c1ccc(O[C@H]2c3cc(Cl)cc(Cl)c3C[C@@H]2N2CCC3(CCNC3)C2)cc1 (some centres not stated) | 11 |  | 
3 | CS(=O)(=O)c1ccc(O[C@H]2c3cc(Cl)cc(Cl)c3C[C@@H]2N2CCC[C@@H](NCCF)C2)cc1 | 56 | 10.5 | < 300
4 | Cc1nnc(C2CC2)n1-c1ccc(O[C@H]2c3ccccc3C[C@@H]2N2CCCC2)cc1 | 272 |  | 
5 | O=C1CCC(=O)N1c1cccc(O[C@H]2c3ccccc3C[C@@H]2N2CCCC2)c1 | 2960 |  | 
6 | Cc1nnc(C)n1-c1ccc(O[C@H]2c3ccccc3C[C@@H]2N2CCCC2)cc1 | 345 |  | 
7 | Cc1noc(C)c1-c1ccc(O[C@H]2c3ccccc3C[C@@H]2N2CCCC2)cc1 | 411 |  | 
8 | CS(=O)(=O)c1ccc(O[C@H]2c3cc(Cl)cc(F)c3C[C@@H]2N2CCNCC2)cc1 (racemic) | 168 |  | 
9 | Cn1ccn(-c2cccc(O[C@H]3c4ccccc4C[C@@H]3N3CCCC3)c2)c1=O | 197 | 9.8 | < 300
10 | CS(=O)(=O)c1ccc(O[C@H]2c3ccccc3C[C@@H]2N2CCCC2)cc1 | 572 | 21.5 | < 300
11 | CS(=O)(=O)c1ccc(O[C@H]2c3cc(Cl)cc(Cl)c3C[C@@H]2N2CC(O)C2)cc1 | 1640 |  | 
12 | N[C@@H]1CCCN([C@H]2Cc3c(Cl)cc(Cl)cc3[C@@H]2Oc2ccc(-n3ccnc3)cc2)C1 | 23 | 1.1 | < 300
13 | CS(=O)(=O)c1ccc(O[C@H]2c3cc(Cl)cc(F)c3C[C@@H]2N2CCCC2)cc1 (racemic) | 737 | 28.3 | < 300
14 | O=c1[nH]ccn1-c1cccc(O[C@H]2c3ccccc3C[C@@H]2N2CCCC2)c1 | 281 | 9.8 | 3800
15 | Cc1nnc(C)n1-c1ccc(O[C@H]2c3ccccc3C[C@@H]2N2CCCC2)c(C(F)(F)F)c1 | 118 |  | 
16 | Cc1nnc(C)n1-c1ccc(O[C@H]2c3cc(Cl)ccc3C[C@@H]2N2CC[C@@H](O)C2)c(Cl)c1 | 90 | 0.5 | 9500
17 | CC(=O)Nc1cc(O[C@H]2c3ccccc3C[C@@H]2N2CCCC2)ccn1 | 4530 |  | 
18 | CS(=O)(=O)c1ccc(O[C@H]2c3cc(Cl)cc(Cl)c3C[C@@H]2N2CCCNCC2)c(Cl)c1 | 2 |  | 
19 | CN1C[C@@H]2CN([C@H]3Cc4c(Cl)cc(Cl)cc4[C@@H]3Oc3ccc(S(C)(=O)=O)cc3)C[C@@H]2C1 | 241 | 6 | < 300

Row | Compound | IC50 [1] [nM] | Papp at 2 h, 20 µM [2] [×10⁻⁶ cm/s] | IC50 (Cytochrome P450 2D6) [nM]
20 | N#Cc1ccc(O[C@H]2c3ccccc3C[C@@H]2N2CCCC2)cc1 | 4500 |  | 
21 | CS(=O)(=O)c1ccc(O[C@H]2c3cc(F)cc(Cl)c3C[C@@H]2N2CCNCC2)cc1 (racemic) | 123 |  | 
22 | CS(=O)(=O)c1ccc(O[C@H]2c3cc(Cl)cc(Cl)c3C[C@@H]2N2CC[C@H](F)C2)cc1 | 883 |  | 
23 | N[C@@H]1CCCN([C@H]2Cc3ccccc3[C@@H]2Oc2ccc(S(N)(=O)=O)c(Cl)c2Cl)C1 | 650 | 0.08 | < 300
24 | CS(=O)(=O)c1ccc(O[C@H]2c3ccccc3C[C@@H]2N2CCCC2)c(Cl)c1Cl | 540 | 19.2 | 
25 | O=C1OCCN1c1cccc(O[C@H]2c3ccccc3C[C@@H]2N2CCCC2)c1 | 955 |  | 
26 | O=S1(=O)CCCN1c1cccc(O[C@H]2c3ccccc3C[C@@H]2N2CCCC2)c1 | 1530 |  | 
27 | Cc1nnc(C)n1-c1ccc(O[C@H]2c3ccccc3C[C@@H]2N2CCCC2)c(Cl)c1 | 78 | 6.7 | 730
28 | CN(C)CCCN(C)[C@H]1Cc2c(Cl)cc(Cl)cc2[C@@H]1Oc1ccc(S(C)(=O)=O)cc1 | 48 |  | 
29 | CN(C)CCN(C)[C@H]1Cc2c(Cl)cc(Cl)cc2[C@@H]1Oc1ccc(S(C)(=O)=O)cc1 | 20 | 8 | < 300
30 | CS(=O)(=O)c1ccc(O[C@H]2c3cc(Cl)cc(Cl)c3C[C@@H]2N2CCCNCC2)cc1 | 6 | 1.6 | < 300
31 | CS(=O)(=O)c1ccc(O[C@H]2c3cc(Cl)cc(Cl)c3C[C@@H]2N2CC[C@@H](O)C2)cc1 | 588 | 28.6 | 2400
32 | COCCN1CCCN([C@H]2Cc3c(Cl)cc(Cl)cc3[C@@H]2Oc2ccc(S(C)(=O)=O)cc2)CC1 | 64 | 11 | < 300
33 | CN1CCN([C@H]2Cc3c(Cl)cc(Cl)cc3[C@@H]2Oc2ccc(S(C)(=O)=O)cc2)CC1 | 4040 |  | 
34 | CS(=O)(=O)c1ccc(O[C@H]2c3cc(Cl)cc(Cl)c3C[C@@H]2N2CC[C@H](O)C2)cc1 | 384 |  | 
35 | CS(=O)(=O)c1ccc(O[C@H]2c3cc(Cl)cc(Cl)c3C[C@@H]2N2CCC[C@@H](N)C2)cc1 | 4 |  | 
36 | CS(=O)(=O)c1ccc(OC2c3cc(Cl)cc(Cl)c3CC2N2C[C@H]3CNC[C@H]3C2)cc1 (single isomer, unassigned) | 28 | 0.07 | 900
37 | CS(=O)(=O)c1ccc(O[C@H]2c3cc(F)ccc3C[C@@H]2N2CCNCC2)cc1 (racemic) | 3490 |  | 
38 | c1ccc2c(c1)C[C@H](N1CCCC1)[C@H]2Oc1cccc2cccnc12 | 9520 |  | 

Row | Compound | IC50 [1] [nM] | Papp at 2 h, 20 µM [2] [×10⁻⁶ cm/s] | IC50 (Cytochrome P450 2D6) [nM]
39 | Cc1nnc(C)n1-c1ccc(O[C@H]2c3cc(Cl)ccc3C[C@@H]2N2CCCC2)c(Cl)c1 | 94 | 16.2 | 2500
40 | CS(=O)(=O)c1ccc(O[C@H]2c3cc(Cl)cc(Cl)c3C[C@@H]2N2CC[C@@H](F)C2)cc1 | 166 |  | 
41 | CS(=O)(=O)c1ccc(O[C@H]2c3c(Cl)cc(Cl)cc3C[C@@H]2N2CCNCC2)cc1 | 135 |  | 
42 | Cc1nncn1-c1ccc(O[C@H]2c3ccccc3C[C@@H]2N2CCCC2)cc1 | 640 |  | 
43 | CCN(CC)C(=O)c1ccc(O[C@H]2c3ccccc3C[C@@H]2N2CCCC2)cc1 | 2070 |  | 
44 | CS(=O)(=O)c1ccc(O[C@H]2c3cc(Cl)ccc3C[C@@H]2N2CCNCC2)cc1 (racemic) | 540 |  | 
45 | O=C1OCc2cc(O[C@H]3c4ccccc4C[C@@H]3N3CCCC3)ccc21 | 2440 |  | 
46 | C[C@@H]1CN([C@H]2Cc3c(Cl)cc(Cl)cc3[C@@H]2Oc2ccc(S(C)(=O)=O)cc2)CCN1 | 20 | 5.1 | 
47 | CS(=O)(=O)c1ccc(O[C@H]2c3cc(Cl)cc(Cl)c3C[C@@H]2N2CCCN(CCO)CC2)cc1 | 30 |  | 
48 | CS(=O)(=O)c1ccc(O[C@H]2c3c(ccc(Cl)c3Cl)C[C@@H]2N2CCCNCC2)cc1 | 43 |  | 
49 | CS(=O)(=O)c1ccc(O[C@H]2c3cc(Cl)cc(Cl)c3C[C@@H]2N2CCC[C@@H](NCCO)C2)cc1 | 4 |  | 
50 | CC(=O)Nc1ccc(O[C@H]2c3ccccc3C[C@@H]2N2CCCC2)cc1 | 2770 |  | 
51 | Cc1c(O[C@H]2c3ccccc3C[C@@H]2N2CCCC2)ccc(-n2c(C)nnc2C)c1C | 170 |  | 
52 | CS(=O)(=O)c1ccc(O[C@H]2c3ccccc3C[C@@H]2N2CCNCC2)cc1 | 6680 |  | 
53 | CS(=O)(=O)c1ccc(O[C@H]2c3cc(Cl)c(Cl)cc3C[C@@H]2N2CCCNCC2)cc1 (racemic) | 6060 |  | 
54 | NS(=O)(=O)c1ccc(O[C@H]2c3ccccc3C[C@@H]2N2CCCC2)cc1 | 500 |  | 
55 | O=C1CCCN1c1cccc(O[C@H]2c3ccccc3C[C@@H]2N2CCCC2)c1 | 3520 |  | 
56 | c1ccc2c(c1)C[C@H](N1CCCC1)[C@H]2Oc1ccc(-c2nccs2)cc1 | 1710 |  | 

Source: ChEMBL document CHEMBL3860060, “Discovery and Optimization of 1-Phenoxy-2-aminoindanes as Potent, Selective, and Orally Bioavailable Inhibitors of the Na+/H+ Exchanger Type 3 (NHE3)” (J Med Chem, 2016)
